Test results taken from ChEMBL document CHEMBL4414672, “Synthesis of certain benzothieno[3,2-d]pyrimidine derivatives as a selective SIRT2 inhibitors” (Eur J Med Chem, 2020).

How the values were obtained:
Format in all cases: functional
CCRF-CEM = experiment: Growth inhibition of human CCRF-CEM cells at 10^-5 M incubated for 48 hrs by sulforhodamine B assay; settings: read-out: GI
OVCAR-8 = experiment: Growth inhibition of human OVCAR8 cells at 10^-5 M incubated for 48 hrs by sulforhodamine B assay; settings: OVCAR-8, 48 h, read-out: GI
A498 = experiment: Growth inhibition of human A498 cells at 10^-5 M incubated for 48 hrs by sulforhodamine B assay; settings: A498, 48 h, read-out: GI
ACHN = experiment: Growth inhibition of human ACHN cells at 10^-5 M incubated for 48 hrs by sulforhodamine B assay; settings: read-out: GI
SR = experiment: Growth inhibition of human SR cells at 10^-5 M incubated for 48 hrs by sulforhodamine B assay; settings: read-out: GI
SK-MEL-5 = experiment: Growth inhibition of human SK-MEL-5 cells at 10^-5 M incubated for 48 hrs by sulforhodamine B assay; settings: SK-MEL-5, 48 h, read-out: GI
SN12C = experiment: Growth inhibition of human SN12C cells at 10^-5 M incubated for 48 hrs by sulforhodamine B assay; settings: read-out: GI
A549 = experiment: Growth inhibition of human A549/ATCC cells at 10^-5 M incubated for 48 hrs by sulforhodamine B assay; settings: A549, 48 h, read-out: GI
Hs-578T = experiment: Growth inhibition of human Hs 578T cells at 10^-5 M incubated for 48 hrs by sulforhodamine B assay; settings: read-out: GI
T47D = experiment: Growth inhibition of human T47D cells at 10^-5 M incubated for 48 hrs by sulforhodamine B assay; settings: read-out: GI
TK-10 = experiment: Growth inhibition of human TK10 cells at 10^-5 M incubated for 48 hrs by sulforhodamine B assay; settings: TK-10, 48 h, read-out: GI
OVCAR-5 = experiment: Growth inhibition of human OVCAR5 cells at 10^-5 M incubated for 48 hrs by sulforhodamine B assay; settings: OVCAR-5, 48 h, read-out: GI
786-0 = experiment: Growth inhibition of human 786-0 cells at 10^-5 M incubated for 48 hrs by sulforhodamine B assay; settings: 786-0, 48 h, read-out: GI
OVCAR-3 = experiment: Growth inhibition of human OVCAR3 cells at 10^-5 M incubated for 48 hrs by sulforhodamine B assay; settings: OVCAR-3, 48 h, read-out: GI
LOX IMVI = experiment: Growth inhibition of human LOXIMVI cells at 10^-5 M incubated for 48 hrs by sulforhodamine B assay; settings: read-out: GI
DU-145 = experiment: Growth inhibition of human DU145 cells at 10^-5 M incubated for 48 hrs by sulforhodamine B assay; settings: DU-145, 48 h, read-out: GI
HCT-15 = experiment: Growth inhibition of human HCT15 cells at 10^-5 M incubated for 48 hrs by sulforhodamine B assay; settings: HCT-15, 48 h, read-out: GI
IGROV-1 = experiment: Growth inhibition of human IGROV1 cells at 10^-5 M incubated for 48 hrs by sulforhodamine B assay; settings: IGROV-1, 48 h, read-out: GI
MCF7 = experiment: Growth inhibition of human MCF7 cells at 10^-5 M incubated for 48 hrs by sulforhodamine B assay; settings: MCF7, 48 h, read-out: GI
SW-620 = experiment: Growth inhibition of human SW620 cells at 10^-5 M incubated for 48 hrs by sulforhodamine B assay; settings: SW-620, 48 h, read-out: GI
SF-295 = experiment: Growth inhibition of human SF295 cells at 10^-5 M incubated for 48 hrs by sulforhodamine B assay; settings: SF-295, 48 h, read-out: GI
M14 = experiment: Growth inhibition of human M14 cells at 10^-5 M incubated for 48 hrs by sulforhodamine B assay; settings: M14, 48 h, read-out: GI
SNB-75 = experiment: Growth inhibition of human SNB75 cells at 10^-5 M incubated for 48 hrs by sulforhodamine B assay; settings: SNB-75, 48 h, read-out: GI
SK-OV-3 = experiment: Growth inhibition of human SKOV3 cells at 10^-5 M incubated for 48 hrs by sulforhodamine B assay; settings: SK-OV-3, 48 h, read-out: GI
RXF 393 = experiment: Growth inhibition of human RXF393 cells at 10^-5 M incubated for 48 hrs by sulforhodamine B assay; settings: RXF 393, 48 h, read-out: GI
MOLT-4 = experiment: Growth inhibition of human MOLT4 cells at 10^-5 M incubated for 48 hrs by sulforhodamine B assay; settings: MOLT-4, 48 h, read-out: GI
NCI-H522 = experiment: Growth inhibition of human NCI-H522 cells at 10^-5 M incubated for 48 hrs by sulforhodamine B assay; settings: NCI-H522, 48 h, read-out: GI
SNB-19 = experiment: Growth inhibition of human SNB19 cells at 10^-5 M incubated for 48 hrs by sulforhodamine B assay; settings: SNB-19, 48 h, read-out: GI
NCI-H460 = experiment: Growth inhibition of human NCI-H460 cells at 10^-5 M incubated for 48 hrs by sulforhodamine B assay; settings: NCI-H460, 48 h, read-out: GI
HL-60(TB) = experiment: Growth inhibition of human HL-60(TB) cells at 10^-5 M incubated for 48 hrs by sulforhodamine B assay; settings: HL-60, 48 h, read-out: GI
NCI-H322M = experiment: Growth inhibition of human NCI-H322M cells at 10^-5 M incubated for 48 hrs by sulforhodamine B assay; settings: read-out: GI
UACC-62 = experiment: Growth inhibition of human UACC62 cells at 10^-5 M incubated for 48 hrs by sulforhodamine B assay; settings: UACC-62, 48 h, read-out: GI
Malme-3M = experiment: Growth inhibition of human MALME-3M cells at 10^-5 M incubated for 48 hrs by sulforhodamine B assay; settings: read-out: GI
MDA-MB-231 = experiment: Growth inhibition of human MDA-MB-231 cells at 10^-5 M incubated for 48 hrs by sulforhodamine B assay; settings: MDA-MB-231, 48 h, read-out: GI
SF-268 = experiment: Growth inhibition of human SF268 cells at 10^-5 M incubated for 48 hrs by sulforhodamine B assay; settings: SF-268, 48 h, read-out: GI
NCI/ADR-RES = experiment: Growth inhibition of human NCI/ADR-RES cells at 10^-5 M incubated for 48 hrs by sulforhodamine B assay; settings: read-out: GI
HCT-116 = experiment: Growth inhibition of human HCT116 cells at 10^-5 M incubated for 48 hrs by sulforhodamine B assay; settings: HCT-116, 48 h, read-out: GI
NCI-H23 = experiment: Growth inhibition of human NCI-H23 cells at 10^-5 M incubated for 48 hrs by sulforhodamine B assay; settings: NCI-H23, 48 h, read-out: GI
SK-MEL-28 = experiment: Growth inhibition of human SK-MEL-28 cells at 10^-5 M incubated for 48 hrs by sulforhodamine B assay; settings: SK-MEL-28, 48 h, read-out: GI

Compound	inhibition of growth at 10 µM (CCRF-CEM)	inhibition of growth at 10 µM (OVCAR-8)	inhibition of growth at 10 µM (A498)	inhibition of growth at 10 µM (ACHN)	inhibition of growth at 10 µM (SR)	inhibition of growth at 10 µM (SK-MEL-5)	inhibition of growth at 10 µM (SN12C)	inhibition of growth at 10 µM (A549)	inhibition of growth at 10 µM (Hs-578T)	inhibition of growth at 10 µM (T47D)	inhibition of growth at 10 µM (TK-10)	inhibition of growth at 10 µM (OVCAR-5)	inhibition of growth at 10 µM (786-0)	inhibition of growth at 10 µM (OVCAR-3)	inhibition of growth at 10 µM (LOX IMVI)	inhibition of growth at 10 µM (DU-145)	inhibition of growth at 10 µM (HCT-15)	inhibition of growth at 10 µM (IGROV-1)	inhibition of growth at 10 µM (MCF7)	inhibition of growth at 10 µM (SW-620)	also measured
O=[N+]([O-])c1cccc(C2NC(N3CCOCC3)=Nc3c2sc2ccc(Cl)cc32)c1 (stereo not drawn)	-3.36%	-3%	1.88%	10.4%	1.5%	4.38%	3.85%	-1.35%	1.47%	21.6%	-10.7%	-1.26%	-5.37%	-0.17%	3.74%	-13.7%	-7.82%	25%	23.1%	-1.57%	inhibition of growth at 10 µM (SF-295): -4.89%; inhibition of growth at 10 µM (M14): -1.17%; inhibition of growth at 10 µM (SNB-75): 10.7%; inhibition of growth at 10 µM (SK-OV-3): -6.18%; inhibition of growth at 10 µM (RXF 393): -8.09%; inhibition of growth at 10 µM (MOLT-4): 1.35%; inhibition of growth at 10 µM (NCI-H522): 3.46%; inhibition of growth at 10 µM (SNB-19): 2.54%; inhibition of growth at 10 µM (NCI-H460): 4.82%; inhibition of growth at 10 µM (HL-60(TB)): -10.4%; inhibition of growth at 10 µM (NCI-H322M): 6.39%; inhibition of growth at 10 µM (UACC-62): 8.77%; inhibition of growth at 10 µM (Malme-3M): 4.08%; inhibition of growth at 10 µM (MDA-MB-231): 18.3%; inhibition of growth at 10 µM (SF-268): 3.84%; inhibition of growth at 10 µM (NCI/ADR-RES): -3.21%; inhibition of growth at 10 µM (HCT-116): 6.8%; inhibition of growth at 10 µM (NCI-H23): 13.4%; inhibition of growth at 10 µM (SK-MEL-28): -22.1%
Oc1ccccc1C1NC(=S)Nc2c1sc1ccc(Cl)cc21 (stereo not drawn)	-4.86%	5.15%	23.4%	8.93%	16.3%	6.32%	9.77%	5.42%	8.15%	24.8%	-8.34%	5.8%	6.17%	4.13%	6.44%	-7.9%	-0.05%	13.6%	-7.9%	-8%	inhibition of growth at 10 µM (SF-295): -0.95%; inhibition of growth at 10 µM (M14): 7.43%; inhibition of growth at 10 µM (SNB-75): 21.1%; inhibition of growth at 10 µM (SK-OV-3): 8.48%; inhibition of growth at 10 µM (RXF 393): 2.85%; inhibition of growth at 10 µM (MOLT-4): 9.69%; inhibition of growth at 10 µM (NCI-H522): 7.8%; inhibition of growth at 10 µM (SNB-19): 2.48%; inhibition of growth at 10 µM (NCI-H460): 1.28%; inhibition of growth at 10 µM (HL-60(TB)): -4.7%; inhibition of growth at 10 µM (NCI-H322M): 5.31%; inhibition of growth at 10 µM (UACC-62): 13.1%; inhibition of growth at 10 µM (Malme-3M): 10.7%; inhibition of growth at 10 µM (MDA-MB-231): 27.4%; inhibition of growth at 10 µM (SF-268): 8.44%; inhibition of growth at 10 µM (NCI/ADR-RES): 9.4%; inhibition of growth at 10 µM (HCT-116): 8.97%; inhibition of growth at 10 µM (NCI-H23): 19.4%; inhibition of growth at 10 µM (SK-MEL-28): -6.12%
